{"source": "paper PMC5519620", "about": "(Frontiers in Cellular Neuroscience, 2017)", "key": {"mouse α9α10 nAChR": {"target": "mouse α9α10 nAChR (Mus musculus, UniProt B2RX82+G3X8Z7)", "sequence (G3X8Z7 23-479)": "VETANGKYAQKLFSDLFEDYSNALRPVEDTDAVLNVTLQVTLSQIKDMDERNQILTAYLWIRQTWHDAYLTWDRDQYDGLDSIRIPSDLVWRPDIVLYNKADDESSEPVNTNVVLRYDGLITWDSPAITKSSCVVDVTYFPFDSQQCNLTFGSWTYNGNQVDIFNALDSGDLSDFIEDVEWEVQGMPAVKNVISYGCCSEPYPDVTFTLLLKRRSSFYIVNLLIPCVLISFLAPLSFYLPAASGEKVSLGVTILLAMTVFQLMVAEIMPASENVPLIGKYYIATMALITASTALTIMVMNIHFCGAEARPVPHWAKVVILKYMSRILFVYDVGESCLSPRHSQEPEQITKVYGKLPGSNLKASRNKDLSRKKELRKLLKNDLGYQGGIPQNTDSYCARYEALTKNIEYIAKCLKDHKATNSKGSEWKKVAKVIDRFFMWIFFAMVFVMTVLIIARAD", "sequence (B2RX82 25-447)": "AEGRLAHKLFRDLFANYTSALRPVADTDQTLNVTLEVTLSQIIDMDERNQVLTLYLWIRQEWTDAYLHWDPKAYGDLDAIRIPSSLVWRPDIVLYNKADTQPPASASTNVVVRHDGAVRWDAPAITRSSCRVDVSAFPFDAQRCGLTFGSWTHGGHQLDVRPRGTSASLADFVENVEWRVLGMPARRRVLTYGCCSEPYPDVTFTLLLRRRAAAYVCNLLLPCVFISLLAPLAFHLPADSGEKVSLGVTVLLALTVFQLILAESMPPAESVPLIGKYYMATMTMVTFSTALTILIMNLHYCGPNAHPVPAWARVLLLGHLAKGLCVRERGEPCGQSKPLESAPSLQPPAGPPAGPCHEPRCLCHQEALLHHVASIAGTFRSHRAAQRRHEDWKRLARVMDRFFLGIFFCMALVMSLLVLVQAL", "assay": "Agonist activation of mouse α9α10 nAChRs in Xenopus oocytes (two-electrode voltage clamp)", "type": "biochemical", "conditions": "for Hill slope for activation / EC50: 95% confidence interval in parentheses, ACh n = 5, choline n = 4; for agonist behaviour (words): oocyte two-electrode voltage clamp, nicotine 100 nM to 10 mM; for EC50: oocytes, holding potential −70 mV", "protocol": "X. laevis oocytes were injected with 25 ng of each cRNA encoding α9 and α10 subunits as previously described (Cartier et al., [1996]) and incubated for 48 h at 17°C in ND96 prior to use. Two-electrode voltage clamp electrophysiology was conducted to assess for functional expression of α9α10 nAChRs as previously described (Azam et al., [2008]). The oocyte membranes were clamped at a holding potential of −70 mV and stimulated with 1 s pulses of 1 mM ACh once every 60 s. After a steady-state response baseline was observed, the oocytes were then stimulated with ascending concentrations of ACh, choline, or nicotine. Each oocyte was stimulated first with ACh followed by choline then nicotine. The maximal response value for activation by ACh was determined using the Hill equation: Y = Bottom + (Top-Bottom)/(1+10^∧((LogEC50−X)*Hill slope)). The responses to all concentrations of ACh, choline, and nicotine were then normalized to this value and calculated as a % response."}, "α9α10 nAChR": {"tested_on": "α9α10 nAChR", "conditions": "MLA and α-bungarotoxin; no reference given; cited from earlier work"}, "α9* nAChRs of monocytes": {"tested_on": "α9* nAChRs of monocytes", "conditions": "ref Hecker et al., 2015; Richter et al., 2016; Backhaus et al., 2017; cited from earlier work"}, "CBA/CaJ mice": {"tested_on": "CBA/CaJ mice", "conditions": "mouse, in vivo"}}, "note": "“Also recorded” adds a separate entry of the source."}
{"smiles": "CC(=O)OCC[N+](C)(C)C", "note": "[ACh, acetylcholine]", "values": [{"measurement": "ACh-evoked current amplitude", "setting": "mouse α9α10 nAChR; 1 mM ACh", "result": "> 10", "unit": "μA"}, {"measurement": "Hill slope for activation", "setting": "mouse α9α10 nAChR", "result": "1.1 (0.8–1.4)"}, {"measurement": "agonist behaviour (words)", "setting": "mouse α9α10 nAChR", "result": "activated; also recorded: induced robust currents"}, {"measurement": "EC50", "setting": "mouse α9α10 nAChR", "result": 30.1, "unit": "µM"}]}
{"smiles": "C[N+](C)(C)CCO", "note": "[choline]", "values": [{"measurement": "Hill slope for activation", "setting": "mouse α9α10 nAChR", "result": "1.3 (0.5–2.1)"}, {"measurement": "agonist behaviour (words)", "setting": "mouse α9α10 nAChR", "result": "activated"}, {"measurement": "agonist behaviour (words)", "setting": "mouse α9α10 nAChR; listed as Choline", "result": "behaved as a partial agonist relative to ACh; also recorded: potently activated α9α10 nAChRs"}, {"measurement": "EC50", "setting": "mouse α9α10 nAChR", "result": 601, "unit": "µM"}]}
{"smiles": "CCN1C[C@]2(COC(=O)c3ccccc3N3C(=O)C[C@H](C)C3=O)CC[C@H](OC)[C@@]34[C@@H]5C[C@H]6[C@H](OC)[C@@H]5[C@](O)(C[C@@H]6OC)[C@@](O)([C@@H](OC)[C@H]23)[C@@H]14", "note": "[methyllycaconitine (MLA), methyllycaconitine]", "values": [{"measurement": "α9α10 nAChR block", "setting": "α9α10 nAChR", "result": "potently block α9α10 nAChRs"}]}
{"smiles": "CN1CCC[C@H]1c1cccnc1", "note": "[nicotine]", "values": [{"measurement": "evoked current (% response relative to ACh maximum)", "setting": "mouse α9α10 nAChR; n = 4, nicotine", "result": "0.4 ± 0.2", "unit": "%"}, {"measurement": "agonist behaviour (words)", "setting": "mouse α9α10 nAChR", "result": "not by nicotine; also recorded: did not activate Xenopus oocyte-expressed mouse α9α10 nAChRs"}, {"measurement": "agonist behaviour (words)", "setting": "mouse α9α10 nAChR; listed as Nic", "result": "failed to evoke currents at concentration from 100 nM to 10 mM"}, {"measurement": "agonist behaviour (words)", "setting": "mouse α9α10 nAChR; listed as Nicotine", "result": "failed to evoke currents in all oocytes tested"}, {"measurement": "Agonist action on monocyte α9* nAChRs", "setting": "α9* nAChRs of monocytes", "result": "act as an agonist of α9^* nAChRs in immune cell monocytes"}]}
{"smiles": "O=C1[O][Pt]2([NH][C@@H]3CCCC[C@H]3[NH]2)[O]C1=O", "note": "[oxaliplatin]", "values": [{"measurement": "Oxaliplatin-induced cold allodynia", "setting": "CBA/CaJ mice", "result": "produced cold allodynia, an effect that significantly differed from control beginning by week three and continuing for 2 weeks post-oxaliplatin treatment"}]}
